What was measured:
[1] = test system: picrotoxin; test: Anti-picrotoxin action (picrotoxin-induced lethality in mice); assay type: in vivo, male dd mice; settings: for ED50: Mus musculus, po, 0.5 h, read-out: Anti-picrotoxin-lethal action, ED50
Method: 1. Anti-picrotoxin Action
Groups each of 7-14 male dd mice were used. A test compound was orally administered and 60 minutes thereafter, picrotoxin (5 mg/kg) was administered subcutaneously. The 50% anti-lethal dose (ED50) was calculated from the servival rate within 30 minutes.

[2] = test system: bicuculline; test: Anti-bicuculline action (bicuculline-induced tonic-extensile convulsions in mice); assay type: in vivo, male dd mice; settings: for ED50: Mus musculus, po, 5 min, read-out: Anti-bicuculline-convulsive action, ED50
Method: 2. Anti-bicuculline Action
Groups each of 4-14 male dd mice were used. Each test compound was administered orally and 60 minutes thereafter, bicuculline (0.6 mg/kg) was administered intravenously. The dose (ED50) required for 50% suppression of the occurrence of tonic-extensile convulsions within 5 minutes against the control group was determined.

| Compound | ED50 [1] [mg/kg] | ED50 [2] [mg/kg] | Anti-picrotoxin-lethal action, percent in parentheses ([1]; printed beside ED50 >100 mg/kg, p.o., mice, picrotoxin 5 mg/kg s.c.) [%] | Anti-bicuculline-convulsive action, percent in parentheses ([2]; printed beside ED50 >100 mg/kg, p.o., mice, bicuculline 0.6 mg/kg i.v.) [%] |
| --- | --- | --- | --- | --- |
| O=C1NC2CC1Cc1ccc(Cl)cc12 (stereo not drawn) [A, 8-chloro-1,4-methano-2,3,4,5-tetrahydro-1H-2-benzazepin-3-one] | 62 | 95 |  |  |
| CN1C(=O)C2Cc3ccc(Cl)cc3C1C2 (stereo not drawn) [B, 8-chloro-2-methyl-1,4-methano-2,3,4,5-tetrahydro-1H-2-benzazepin-3-one] | 66 | 45 |  |  |
| O=C1NC2CC1Cc1c(Cl)cc(Cl)cc12 (stereo not drawn) [C, 6,8-dichloro-1,4-methano-2,3,4,5-tetrahydro-1H-2-benzazepin-3-one] | 50 | 73 |  |  |
| O=C1NC2CC1Cc1ccccc12 (stereo not drawn) [D, 1,4Methano-2,3,4,5-tetrahydro-1H--2benzazepin-3-one] | 1100 | > 1000 |  |  |
| COc1ccc2c(c1)C1CC(C2)C(=O)N1C (stereo not drawn) [E, 8Methoxy-2-methyl-1,4-methano-2,3,4,5-tetrahydro-1H--2-benzazepin3-one] | > 100 | > 100 | 0 | 0 |

Reference: patent US4546107A, “1,4-Methano-2-benzazepine derivatives useful as cerebal dysfunction-improving drugs, anti-convulsant, anti-epileptic or anti-anxiety drugs” (priority 1982, dated 1985)
